Here are results for two molecules from patent US11911394B2, “Compound and method for the prevention of transmission of influenza virus” (Hoffmann-La Roche Inc., priority 2019, dated 2024).

For test [1], the system named is Influenza A/Perth/265/2009 H1N1pdm09 virus. The test can be described thus: Example 2 ferret contact transmission study, quantitative real-time RT-PCR of nasal wash. The test is classed as in vivo. The conditions noted are these: for donor viral copy numbers (qRT-PCR) compared to placebo: 3 DPI (p≤0.05), nasal wash; for recipients with influenza virus RNA detected (qRT-PCR) / ferrets with viral RNA detected (qRT-PCR), FIG. 13B recipient results: positive/total; for ferrets with viral RNA detected (qRT-PCR), FIG. 13B recipient results: Example 2 Experiment 3, printed as donors. The protocol:
The active form baloxavir acid (S-033447, hereafter BXA) and pro-drug oseltamivir phosphate (hereafter OST) was kindly provided by Shionogi & Co., Ltd., Japan. The vehicle for BXA delivery was methyl cellulose (Sigma-Aldrich, Australia) in 0.5 w/v % aqueous solution prepared with sterile water (hereafter MC solution). BXA in suspension with MC solution (1 mg/mL) was prepared using an agate mortar and pestle, and was delivered to reversibly anaesthetised animals in a single treatment consisting of 4 subcutaneous injections at 4 locations on the dorsal region (total dose 4 mg/kg per animal). Animals in the placebo group were dosed identically using MC solution (1 mL/kg) alone. OST doses (10 mg/mL) were prepared in sugar solution (1 g/mL) and delivered bis in die (8 hr interval) to non-sedated ferrets by the oral route (total dose 10 mg/kg/day).
Viral RNA was extracted from 200 μL nasal wash samples using the NucleoMag VET isolation kit (Macherey Nagel) on the KingFisher Flex (ThermoFisher Scientific) platform according to manufacturer's instructions. Influenza virus M gene copy number in 4 μL RNA was determined by quantitative real-time RT-PCR performed using the SensiFAST Probe Lo-ROX One-Step qRT-PCR System Kit (Bioline) on the ABI 7500 Real Time PCR System (Applied Biosystems) under the following cycling conditions: 45° C. for 10 min, 1 cycle; 95° C. for 2 min, 1 cycle; 95° C. for 5 sec then 60° C. for 30 sec, 40 cycles. Sample RNA was quantitated using influenza A RNA standards of known copy number, kindly provided by Seqirus, Australia. Universal influenza A real-time primer/probe sets were kindly provided by CDC Influenza Branch (Atlanta, USA) (sequences available upon request). Results were analysed by 7500 Fast System SDS software v1.5.1.
Data analysis was performed using Graphpad Prism (GraphPad Software, v5.01). Nasal wash viral titres of all ferrets on each day post inoculation/exposure were compared by a matched two-way analysis of variance (ANOVA) followed by Tukey's multiple comparisons test. Quantitative real time RT-PCR was performed on influenza control RNA of known copy number to generate a standard curve (linear regression of influenza cycle threshold (Ct) values vs. copy number). Viral copy numbers present in nasal wash RNA samples on the same assay were calculated using the formula of the standard curve. Influenza A copy numbers for each group of ferrets were compared by a matched two-way ANOVA followed by Tukey's multiple comparisons test. p<0.05 was considered statistically significant.
This study consisted of three separate Experiments using different schedules of antiviral treatment and timing of naïve animal co-housing. In each experiment, twenty-four ferrets were randomly assigned to three groups (n=8): BXA, OST and placebo. Within each group, n=4 ferrets were designated as treated donor ferrets, and n=4 as naïve recipients. On 0 DPI (days post inoculation) for each experiment, all donor ferrets (each individually housed) were intranasally inoculated with influenza A/Perth/265/2009 at […] tissue culture infective doses (TCID50) in 40 μL of phosphate-buffered saline (PBS). As described above, donors in the BXA and placebo groups received a single antiviral treatment, whereas OST-group donors were treated daily until endpoint (excluding cull day). At the designated time point, naïve recipient ferrets were co-housed with treated donor ferrets (1:1 per cage) for a contact exposure period of 48 hr.
Experiment 1: Antiviral treatment for all donors commenced at 1 DPI, and naïve recipient ferrets were co-housed immediately following treatment. Body weight and temperature were monitored daily from all animals. Daily nasal wash samples were collected 1 mL of PBS from 1 DPI to 3 DPI for donor animals, and 1 day post exposure (DPE) to 10 DPE for recipient animals. Donors were sacrificed at 3 DPI (2 DPE), and blood was collected from BXA- and placebo-treated ferrets by cardiac puncture. […]
On the technique in general: In qPCR the cycle at which signal appears reflects the starting amount.

The subject of test [2] is influenza A virus A/England/195/2009. The test can be described thus: Example 1 ferret transmission study, real-time RT-PCR of nasal wash. Type of test: in vivo. The conditions noted are these: positive/total; for Sentinel DC ferrets positive for influenza as detected by the qRT-PCR: direct contact sentinels; for Sentinel RD ferrets positive for influenza as detected by the qRT-PCR: respiratory droplet sentinels. The protocol:
In this experiment baloxavir was administered once to ferrets as s.c. suspension with 1 mg/kg at 4 different locations in the back. Oseltamivir phosphate (5 mg/kg) was orally administered twice daily for 5 days.
24 hours post infection, the 4 infected ferrets were nasal washed. Nasal washes were assayed immediately by plaquing on fresh MDCK cells for infectious virus and carrying out RT-PCR for viral RNA load. Each donor ferret was then treated with either baloxavir, oseltamivir phosphate or vehicle only. Baloxavir was administered once subcutaneously in 4 locations on the back with 1 mg/l mL/kg per injection (total 4 mg/4 mL/kg). After dosing of baloxavir blood samples (minimum 200 μl) were collected from the donor animals at 48 h and 144 h, respectively, for pharmacokinetics (PK) analysis.
A 5 mg/kg dose of oseltamivir phosphate was orally administered twice daily for 5 days, which is considered to be equivalent to the standard human adult dose of 75 mg for treatment (J Antimicrob Chemother 2014; 69: 2458-2469). After drug administration on day 1 one sentinel animal was introduced into same cage as each infected donor (DC animal) and one sentinel animal was introduced into adjacent cage (RD animal). Sentinel animals were not treated with any drug.
All ferrets were nasal washed on day 2 and every subsequent day until experiment end starting with RD animals, then DC animals, and finishing with donors. Plaque assay was performed immediately on nasal wash. Virus RNA was also monitored by RT-PCR. Daily observation of clinical signs including temperature, weight loss and respiratory signs was performed. In addition, virus exhaled in breath from the 4 donor animals was monitored by placing them in a chamber for 10 minutes and sampling air using sentinel MDCK cells.
140 μl of ferret nasal wash was used to extract RNA using the Qiagen Viral RNA mini kit (Cat No./ID: 52904), according to manufacturer's instructions.
Real-time PCR was performed using 7500 Real Time PCR system (ABI) in 20 μl reactions using AgPath-ID™ One-Step RT-PCR Reagents 10 μl RT-PCR buffer (2×) (Thermo Fisher, Cat. No. 4387391), 4 μl of RNA, 0.8 μl forward (5′[…] 3′, SEQ ID NO:1) and reverse primers (5′ […]3′, SEQ ID NO:2) and 0.4 μl probe (5′ FAM-[…]-BHQ1 3′, SEQ ID NO:3). Reverse transcription was carried out at 45° C. for 10 min. PCR amplification conditions consisted of 95° C. for 15 s and 60° C. for 1 min after an initial denaturation step at 95° C. for 10 min. In total 40 cycles were performed. For each sample, the Ct value for the target M gene was determined. M gene is an influenza gene encoding the 2 Matrix proteins M1 and M2. The M gene is detected in PCR and can be used to quantify the influenza virus. Based on the standard curves, absolute copy numbers were calculated to establish if the ferret was positive for influenza A.

Molecules are shown by their SMILES.

In the case of `CCOC(=O)C1=C[C@@H](OC(CC)CC)[C@H](NC(C)=O)[C@@H](N)C1` [oseltamivir, oseltamivir phosphate, reference compound], in test [1] (Example 2 Experiment 1), the “donor viral copy numbers (qRT-PCR) compared to placebo” value is reported as “significantly reduced” and the “recipients with influenza virus RNA detected (qRT-PCR)” value (shortened to “recipients”) is on record as 4/4. In addition, in test [1] (Example 2 Experiment 2), the “recipients” value was 4/4. In test [1], the “ferrets with viral RNA detected (qRT-PCR), FIG. 13B recipient results” value is on record as 4/4. In test [2], the “Sentinel DC ferrets positive for influenza as detected by the qRT-PCR” value is 4/4, the “Donor ferrets positive for influenza as detected by the qRT-PCR” value is 4/4 and the “Sentinel RD ferrets positive for influenza as detected by the qRT-PCR” value is 4/4.

For `O=C1c2c(O)c(=O)ccn2N([C@@H]2c3ccccc3SCc3c2ccc(F)c3F)[C@@H]2COCCN12` [baloxavir, baloxavir acid], in test [1] (Example 2 Experiment 1), the “donor viral copy numbers (qRT-PCR) compared to placebo” value is reported as “significantly reduced” and the “recipients” value is listed as 2/4. Further, the “donor mean viral copy number (qRT-PCR)” value in test [1] (Example 2 Experiment 2, 3 DPI, no differences at any other days) is on record as “reduced”. Further, the “recipients” value in test [1] (Example 2 Experiment 2) is 1/4. The “ferrets with viral RNA detected (qRT-PCR), FIG. 13B recipient results” value in test [1] is reported as 3/4. Also, in test [2], the “Sentinel DC ferrets positive for influenza as detected by the qRT-PCR” value is listed as 4/4, the “Donor ferrets positive for influenza as detected by the qRT-PCR” value is listed as 4/4 and the “Sentinel RD ferrets positive for influenza as detected by the qRT-PCR” value was 1/4.
